From patent publication US11998553B2, “Certain (2S)-N-[(1S)-1-cyano-2-phenylethyl]-1,4-oxazepane-2-carboxamides for treating lupus nephritis” (Insmed Incorporated, priority 2018, dated 2024)

Tested on: NZB/WF1 mice
Assay: Accelerated lupus nephritis model in mice (Ad-IFNα5 injection)
Format: in vivo
Protocol: INS1007 as a potential treatment for LN was assessed. 10-11 week old female New Zealand Black/New Zealand White F1 (NZB/WF1) mice (Jackson Laboratory) were subjected to a single injection of an adenovirus expressing IFNα5 (Ad-IFNα5, BioXcell, cat #BE0241, clone AR1-5A3) to accelerate the clinical manifestations of LN. FIG. 1 provides a schematic overview of the study design.
The duration of the study was 8 weeks from Ad-IFNα5 injection.
Urine and blood collection was carried out at baseline (immediately after Ad-IFNα5 injection), and at weeks 2, 4, 6 and 8. Total protein (by chemstick), albumin (by ELISA) and creatinine (by a colorimetric assay kit) was measured in urine and blood urea nitrogen (BUN) was measured in plasma.
Animals were sacrificed at 8 weeks and the left kidney of each animal was used for histopathology analysis. Pathology scores are summed from individual scores of three aspects: glomerulonephritis, tubular protein and nephropathy and were scored by a Certified Veterinary Pathologist.
The right kidneys of each animal were used for FACS analysis. Right kidneys were digested and subjected to Percoll centrifugation, fixable-viability-dye and surface staining for the following markers: CD45, CD3, CD11b, F4/80, Ly6G and Ly6C. Results of FACS are provided at FIGS. 7-13.

Cn1c(=O)oc2ccc(-c3ccc(C[C@@H](C#N)NC(=O)[C@@H]4CNCCCO4)cc3)cc21 [INS1007, (2S)—N-{(1S)-1-cyano-2-[4-(3-methyl-2-oxo-2,3-dihydro-1,3-benzoxazol-5-yl)phenyl]ethyl}-1,4-oxazepane-2-carboxamide]
pseudo-survival (urine total protein less than 750 mg/dL) (days post Ad-IFNα5 injection, INS1007 0.1, 1, 10 mg/kg PO twice daily, FIG. 5): increased “pseudo-survival” (and decreased total protein concentration) in a dose dependent manner | renal pathology score sum (glomerulonephritis, tubular protein, nephropathy) (left kidney histopathology at 8 weeks, vs vehicle, FIG. 6): decreased renal pathology as compared to vehicle control | blood urea nitrogen (BUN) levels (plasma BUN (mg/dL), 6 weeks after model induction, INS1007 0.1, 1, 10 mg/kg PO twice daily, FIG. 4): decreased in animals treated with INS1007 in a dose dependent matter | T-lymphocyte percent of total kidney cells (right kidney FACS, CD45+, CD3+, week 8, FIG. 13): significantly decreased | Ly6C+ macrophage percent of total kidney cells (right kidney FACS, CD45+, CD11b+, F4/80+, Ly6C+, Ly6G−, week 8, FIG. 11): significantly decreased | Ly6C+ monocyte percent of total kidney cells (right kidney FACS, CD45+, CD11b+, Ly6G−, Ly6C+, week 8, FIG. 10): significantly decreased | myelocyte percent of total kidney cells (right kidney FACS, CD45+, CD11b+, week 8, FIG. 8): significantly decreased | urinary protein concentration (urine total protein by chemstick (mg/dL), week 8, INS1007 0.1, 1, 10 mg/kg PO twice daily from week 2, FIG. 3): decrease in urinary protein concentration (mg/dL) in a dose dependent manner
